According to patent US11173162B2, “Bicyclic heterocycles as FGFR4 inhibitors” (Incyte Corporation, priority 2015, dated 2021):

System: FGFR3 enzyme
Assay: FGFR Enzymatic Assay (FRET peptide phosphorylation), FGFR3
Assay type: biochemical
Details: IC50 ratio showing FGFR3 selectivity; Table 2A, pre-incubated for 4 hours
Experimental: The inhibitor potency of the exemplified compounds was measured in an enzyme assay that measures peptide phosphorylation using FRET measurements to detect product formation. Inhibitors were serially diluted in DMSO and a volume of 0.5 μL was transferred to the wells of a 384-well plate.
GraphPad prism3 was used to analyze the data.

Row | FGFR1/FGFR3 | FGFR4/FGFR3 | Compound
1 | >3 | >5 | COc1cc(OC)c(F)c(N2Cc3cnc(-c4cn(C)nc4C)cc3N(c3ccc(-c4nnc(C)o4)cc3)C2=O)c1F [Example 115, 3-(2,6-difluoro-3,5-dimethoxyphenyl)-7-(1,3-dimethyl-1H-pyrazol-4-yl)-1-(4-(5-methyl-1,3,4-oxadiazol-2-yl)phenyl)-3,4-dihydropyrido[4,3-d]pyrimidin-2(1H)-one]
2 | >5 | >10 | COc1cc(OC)c(F)c(N2Cc3cnc(-c4cn(C)nc4C)cc3N(c3cccc(-c4cnnn4C)c3)C2=O)c1F [Example 89, 3-(2,6-difluoro-3,5-dimethoxyphenyl)-7-(1,3-dimethyl-1H-pyrazol-4-yl)-1-(3-(1-methyl-1H-1,2,3-triazol-5-yl)phenyl)-3,4-dihydropyrido[4,3-d]pyrimidin-2(1H)-one]
3 | >3 | >5 | COc1cc(OC)c(F)c(N2Cc3cnc(-c4cn(C)nc4C)cc3N(c3ccc4cn[nH]c4c3)C2=O)c1F [Example 133, 3-(2,6-difluoro-3,5-dimethoxyphenyl)-7-(1,3-dimethyl-1H-pyrazol-4-yl)-1-(1H-indazol-6-yl)-3,4-dihydropyrido[4,3-d]pyrimidin-2(1H)-one]
4 | >5 | >3 | COc1cc(OC)c(F)c(N2Cc3cnc(-c4cnn(CCN5CCC(OC)C5)c4)cc3C3(CC3)C2=O)c1F (centres unmarked) [Example 161, 2′-(2,6-difluoro-3,5-dimethoxyphenyl)-6′-(1-(2-(3-methoxypyrrolidin-1-yl)ethyl)-1H-pyrazol-4-yl)-1′H-spiro[cyclopropane-1,4′-[2,7]naphthyridin]-3′(2′H)-one]
5 | >5 | >3 | CCn1cc(-c2cc3c(cn2)CN(c2c(F)c(OC)cc(OC)c2F)C(=O)C32CC2)c(C)n1 [Example 158, 2′-(2,6-difluoro-3,5-dimethoxyphenyl)-6′-(1-ethyl-3-methyl-1H-pyrazol-4-yl)-1′H-spiro[cyclopropane-1,4′-[2,7]naphthyridin]-3′(2′H)-one]
6 | >3 | >3 | COc1cc(OC)c(F)c(N2Cc3cnc(-c4cnn(CC5CN(S(C)(=O)=O)C5)c4)cc3C3(CC3)C2=O)c1F [Example 166, 2′-(2,6-difluoro-3,5-dimethoxyphenyl)-6′-(1-((1-(methylsulfonyl)azetidin-3-yl)methyl)-1H-pyrazol-4-yl)-1′H-spiro[cyclopropane-1,4′-[2,7]naphthyridin]-3′(2′H)-one]
7 | >5 | >3 | COc1cc(OC)c(F)c(N2Cc3cnc(-c4cn(CC#N)nc4C)cc3C3(CC3)C2=O)c1F [Example 153, 2-(4-(2′-(2,6-difluoro-3,5-dimethoxyphenyl)-3′-oxo-2′,3′-dihydro-1′H-spiro[cyclopropane-1,4′-[2,7]naphthyridine]-6′-yl)-3-methyl-1H-pyrazol-1-yl)acetonitrile]
8 | >10 | >3 | COc1cc(OC)c(F)c(N2Cc3cnc(-c4cnn(CCC5CCN(S(C)(=O)=O)CC5)c4)cc3C3(CC3)C2=O)c1F [Example 148, 2′-(2,6-difluoro-3,5-dimethoxyphenyl)-6′-(1-(2-(1-(methylsulfonyl)piperidin-4-yl)ethyl)-1H-pyrazol-4-yl)-1′H-spiro[cyclopropane-1,4′-[2,7]naphthyridin]-3′(2′H)-one]
9 | >10 | >10 | CCc1cc(CN2C(=O)N(c3c(F)c(OC)cc(OC)c3F)Cc3cnc(-c4cn(C)nc4C)cc32)no1 [Example 64, 3-(2,6-difluoro-3,5-dimethoxyphenyl)-7-(1,3-dimethyl-1H-pyrazol-4-yl)-1-((5-ethylisoxazol-3-yl)methyl)-3,4-dihydropyrido[4,3-d]pyrimidin-2(1H)-one]
10 | >5 | >3 | COc1cc(OC)c(F)c(N2Cc3cnc(-c4cnn(CCN5CCOCC5)c4)cc3C3(CC3)C2=O)c1F [Example 157, 2′-(2,6-difluoro-3,5-dimethoxyphenyl)-6′-(1-(2-morpholinoethyl)-1H-pyrazol-4-yl)-1′H-spiro[cyclopropane-1,4′-[2,7]naphthyridin]-3′(2′H)-one]
11 | >5 |  | CNC(=O)c1ccc(-c2cc3c(cn2)CN(c2c(F)c(OC)cc(OC)c2F)C(=O)C32CC2)cn1 [Example 18, 5-(2′-(2,6-difluoro-3,5-dimethoxyphenyl)-3′-oxo-2′,3′-dihydro-1′H-spiro[cyclopropane-1,4′-[2,7]naphthyridine]-6′-yl)-N-methylpicolinamide]
12 | >10 | >10 | COc1ccc(CN2C(=O)N(c3c(F)c(OC)cc(OC)c3F)Cc3cnc(-c4cn(C)nc4C)cc32)cn1 [Example 59, 3-(2,6-difluoro-3,5-dimethoxyphenyl)-7-(1,3-dimethyl-1H-pyrazol-4-yl)-1-((6-methoxypyridin-3-yl)methyl)-3,4-dihydropyrido[4,3-d]pyrimidin-2(1H)-one]
13 | >5 | >10 | COc1cc(OC)c(F)c(N2Cc3cnc(-c4ccc(C5(C#N)CCC5)nc4)cc3N(c3ccncn3)C2=O)c1F [Example 135, 1-(5-(3-(2,6-difluoro-3,5-dimethoxyphenyl)-2-oxo-1-(pyrimidin-4-yl)-1,2,3,4-tetrahydropyrido[4,3-d]pyrimidin-7-yl)pyridin-2-yl)cyclobutanecarbonitrile]
14 | >5 | >5 | COc1cc(OC)c(F)c(N2Cc3cnc(-c4cn(C)nc4C)cc3N(c3cccc(F)c3)C2=O)c1F [Example 99, 3-(2,6-difluoro-3,5-dimethoxyphenyl)-7-(1,3-dimethyl-1H-pyrazol-4-yl)-1-(3-fluorophenyl)-3,4-dihydropyrido[4,3-d]pyrimidin-2(1H)-one]
15 | >5 | >5 | COc1cc(OC)c(F)c(N2Cc3cnc(-c4cn(C)nc4C)cc3N(c3ccc(F)c(C#N)c3)C2=O)c1F [Example 66, 5-(3-(2,6-difluoro-3,5-dimethoxyphenyl)-7-(1,3-dimethyl-1H-pyrazol-4-yl)-2-oxo-3,4-dihydropyrido[4,3-d]pyrimidin-1(2H)-yl)-2-fluorobenzonitrile]

Row | Compound | FGFR1/FGFR3 | FGFR4/FGFR3
16 | COc1cc(OC)c(F)c(N2Cc3cnc(-c4cn(C)nc4C)cc3N(C[C@H]3CCOC3)C2=O)c1F [Example 108, (R)-3-(2,6-difluoro-3,5-dimethoxyphenyl)-7-(1,3-dimethyl-1H-pyrazol-4-yl)-1-((tetrahydrofuran-3-yl)methyl)-3,4-dihydropyrido[4,3-d]pyrimidin-2(1H)-one] | >3 | >3
17 | COc1cc(OC)c(F)c(N2Cc3cnc(-c4ccc(C5(C#N)CCC5)nc4)cc3N(c3cnn(C)c3)C2=O)c1F [Example 188, 1-{5-[3-(2,6-difluoro-3,5-dimethoxyphenyl)-1-(1-methyl-1H-pyrazol-4-yl)-2-oxo-1,2,3,4-tetrahydropyrido[4,3-d]pyrimidin-7-yl]pyridin-2-yl}cyclobutanecarbonitrile] | >5 | >5
18 | COc1cc(OC)c(F)c(N2Cc3cnc(-c4cn(C)nc4C)cc3N(C3CCN(S(C)(=O)=O)CC3)C2=O)c1F [Example 71, 3-(2,6-difluoro-3,5-dimethoxyphenyl)-7-(1,3-dimethyl-1H-pyrazol-4-yl)-1-(1-(methylsulfonyl)piperidin-4-yl)-3,4-dihydropyrido[4,3-d]pyrimidin-2(1H)-one] | >5 | >3
